Legend:
corn = experiment: Test B pre/postemergence corn; assay type: in vivo, Zea mays
Method in brief: (§1)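 Herbicidal effect was estimated by eye on a ten-point control scale after plants spent twelve to sixteen days in a greenhouse following soil or foliar treatment. Foliar sprays targeted plants at one to four leaves; all doses were formulated in a non-phytotoxic solvent with surfactant.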

velvetleaf = experiment: Test B pre/postemergence velvetleaf; assay type: in vivo, Abutilon theophrasti
Method in brief: as §1

duck salad = experiment: Test B flood test duck salad; assay type: in vivo, Heteranthera limosa
Method in brief: (§2)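 Read-out is a visual response score from 0 (no effect) to 10 (complete control), assigned by comparison with untreated controls. Treatment was applied at the 2-leaf stage, and plants stayed in the greenhouse for twelve to sixteen days before scoring.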

rape = experiment: Test B pre/postemergence rape; assay type: in vivo, Brassica napus
Method in brief: as §1

bedstraw = experiment: Test B pre/postemergence bedstraw; assay type: in vivo, Galium aparine
Method in brief: as §1

pigweed = experiment: Test B pre/postemergence pigweed; assay type: in vivo, Amaranthus retroflexus
Method in brief: as §1

purple nutsedge = experiment: Test B pre/postemergence purple nutsedge; assay type: in vivo, Cyperus rotundus
Method in brief: as §1

rice = experiment: Test B flood test rice; assay type: in vivo, Oryza sativa
Method in brief: as §2

giant foxtail = experiment: Test B pre/postemergence giant foxtail; assay type: in vivo, Setaria faberii
Method in brief: as §1

surinam grass = experiment: Test B pre/postemergence surinam grass; assay type: in vivo, Brachiaria decumbens
Method in brief: as §1

cocklebur = experiment: Test B pre/postemergence cocklebur; assay type: in vivo, Xanthium strumarium
Method in brief: as §1

soybean = experiment: Test B pre/postemergence soybean; assay type: in vivo, Glycine max
Method in brief: as §1

morningglory = experiment: Test B pre/postemergence morningglory; assay type: in vivo, Ipomoea hederacea
Method in brief: as §1

blackgrass = experiment: Test B pre/postemergence blackgrass; assay type: in vivo, Alopecurus myosuroides
Method in brief: as §1

bamyardgrass = experiment: Test B flood test barnyardgrass; assay type: in vivo, Echinochloa crus-galli
Method in brief: as §2

wheat = experiment: Test B pre/postemergence wheat; assay type: in vivo, Triticum aestivum
Method in brief: as §1

wild oat = experiment: Test B pre/postemergence wild oat; assay type: in vivo, Avena fatua
Method in brief: as §1

crabgrass = experiment: Test B pre/postemergence crabgrass; assay type: in vivo, Digitaria sanguinalis
Method in brief: as §1

sugar beet = experiment: Test B pre/postemergence sugar beet; assay type: in vivo, Beta vulgaris
Method in brief: as §1

smallflower flatsedge = experiment: Test B flood test smallflower flatsedge; assay type: in vivo, Cyperus difformis
Method in brief: as §2

[1] = Postemergence, Rate 31 g/ha, visual rating, scale 0 to 10 (0 no effect, 10 complete control)
[2] = Postemergence, Rate 62 g/ha, scale 0 to 10, 0 is no effect, 10 is complete control
[3] = Postemergence, Rate 125 g/ha, scale of 0 to 10 where 0 is no effect and 10 is complete control
[4] = Preemergence, Rate 31 g/ha, visual rating, scale 0 to 10 (0 no effect, 10 complete control)
[5] = Preemergence, Rate 62 g/ha, scale 0 to 10 (0 no effect, 10 complete control)
[6] = Preemergence, Rate 125 g/ha, scale of 0 to 10 where 0 is no effect and 10 is complete control
[7] = Preemergence, Rate 250 g/ha, scale 0 to 10 (0 no effect, 10 complete control)
[8] = Rate 31 g/ha, Pre-emergence section (flood test species), scale 0 to 10
[9] = Rate 62 g/ha, flood test species, Pre-emergence, visual evaluation after twelve to sixteen days
[10] = Rate 125 g/ha, under heading Pre-emergence, flood test species, visual evaluation after twelve to sixteen days
[11] = Rate 250 g/ha, Pre-emergence (flood test species), scale 0 to 10, 0 is no effect, 10 is complete control

## CCOC(=O)CC(C(=O)OCC)n1c(=O)on(C(=O)N(c2ccccc2)C(C)C)c1=O (stereo not shown) [Compound 614]
corn; [1]
  Corn plant response rating: 0
corn; [2]
  Plant response rating, Corn: 0
corn; [3]
  Plant response rating, Corn: 0
corn; [4]
  Corn plant response rating: 0
corn; [5]
  Corn plant response rating: 0
corn; [6]
  Corn plant response rating: 0
corn; [7]
  Plant response rating, Corn: 0
velvetleaf; [1]
  Velvetleaf plant response rating: 0
velvetleaf; [2]
  Plant response rating, Velvetleaf: 0
velvetleaf; [3]
  Plant response rating, Velvetleaf: 0
velvetleaf; [5]
  Velvetleaf plant response rating: 0
velvetleaf; [6]
  Velvetleaf plant response rating: 0
velvetleaf; [7]
  Plant response rating, Velvetleaf: 0
Duck salad; [8]
  Ducksalad plant response rating: 0
Duck salad; [9]
  Plant response rating, Ducksalad (0 to 10 scale, 0 is no effect, 10 is complete control): 0
Duck salad; [10]
  Ducksalad plant response rating (0 to 10 scale, 0 is no effect, 10 is complete control): 0
Duck salad; [11]
  Ducksalad plant response rating: 0
rape; [1]
  Rape plant response rating: 0
rape; [2]
  Plant response rating, Rape: 0
rape; [3]
  Plant response rating, Rape: 0
rape; [5]
  Rape plant response rating: 0
rape; [6]
  Rape plant response rating: 0
rape; [7]
  Plant response rating, Rape: 0
bedstraw; [3]
  Plant response rating, Bedstraw: 0
bedstraw; [4]
  Bedstraw plant response rating: 0
bedstraw; [5]
  Bedstraw plant response rating: 0
bedstraw; [7]
  Plant response rating, Bedstraw: 0
pigweed; [1]
  Redroot pigweed plant response rating: 0
pigweed; [2]
  Plant response rating, Redroot pigweed: 0
pigweed; [3]
  Plant response rating, Redroot pigweed: 0
pigweed; [5]
  Redroot pigweed plant response rating: 0
pigweed; [6]
  Redroot pigweed plant response rating: 0
pigweed; [7]
  Plant response rating, Redroot pigweed: 0
Purple nutsedge; [1]
  Nutsedge plant response rating: 0
Purple nutsedge; [2]
  Plant response rating, Nutsedge: 0
Purple nutsedge; [3]
  Plant response rating, Nutsedge: 0
Purple nutsedge; [6]
  Nutsedge plant response rating: 0
Purple nutsedge; [7]
  Plant response rating, Nutsedge: 0
rice; [8]
  Rice plant response rating: 0
rice; [9]
  Plant response rating, Rice (0 to 10 scale, 0 is no effect, 10 is complete control): 0
rice; [10]
  Rice plant response rating (0 to 10 scale, 0 is no effect, 10 is complete control): 0
rice; [11]
  Rice plant response rating: 0
Giant foxtail; [1]
  Giant foxtail plant response rating: 0
Giant foxtail; [2]
  Plant response rating, Giant foxtail: 0
Giant foxtail; [3]
  Plant response rating, Giant foxtail: 0
Giant foxtail; [4]
  Giant foxtail plant response rating: 0
Giant foxtail; [5]
  Giant foxtail plant response rating: 0
Giant foxtail; [6]
  Giant foxtail plant response rating: 4
Giant foxtail; [7]
  Plant response rating, Giant foxtail: 9
Surinam grass; [1]
  B. signalgrass plant response rating: 0
Surinam grass; [2]
  Plant response rating, B. signalgrass: 0
Surinam grass; [3]
  Plant response rating, B. signalgrass: 0
Surinam grass; [4]
  B. signalgrass plant response rating: 0
Surinam grass; [5]
  B. signalgrass plant response rating: 0
Surinam grass; [6]
  B. signalgrass plant response rating: 0
Surinam grass; [7]
  Plant response rating, B. signalgrass: 0
cocklebur; [1]
  Cocklebur plant response rating: 0
cocklebur; [2]
  Plant response rating, Cocklebur: 0
cocklebur; [3]
  Plant response rating, Cocklebur: 0
cocklebur; [4]
  Cocklebur plant response rating: 0
cocklebur; [5]
  Cocklebur plant response rating: 0
cocklebur; [6]
  Cocklebur plant response rating: 0
cocklebur; [7]
  Plant response rating, Cocklebur: 0
soybean; [1]
  Soybean plant response rating: 2
soybean; [2]
  Plant response rating, Soybean: 3
soybean; [3]
  Plant response rating, Soybean: 3
soybean; [5]
  Soybean plant response rating: 0
soybean; [6]
  Soybean plant response rating: 0
soybean; [7]
  Plant response rating, Soybean: 0
morningglory; [1]
  Morningglory plant response rating: 0
morningglory; [2]
  Plant response rating, Morningglory: 2
morningglory; [3]
  Plant response rating, Morningglory: 2
morningglory; [5]
  Morningglory plant response rating: 0
morningglory; [6]
  Morningglory plant response rating: 0
morningglory; [7]
  Plant response rating, Morningglory: 0
blackgrass; [1]
  Blackgrass plant response rating: 0
blackgrass; [2]
  Plant response rating, Blackgrass: 0
blackgrass; [3]
  Plant response rating, Blackgrass: 0
blackgrass; [4]
  Blackgrass plant response rating: 0
blackgrass; [5]
  Blackgrass plant response rating: 0
blackgrass; [6]
  Blackgrass plant response rating: 0
blackgrass; [7]
  Plant response rating, Blackgrass: 3
bamyardgrass; [8]
  Barnyardgrass plant response rating: 0
bamyardgrass; [9]
  Plant response rating, Barnyardgrass (0 to 10 scale, 0 is no effect, 10 is complete control): 0
bamyardgrass; [10]
  Barnyardgrass plant response rating (0 to 10 scale, 0 is no effect, 10 is complete control): 0
bamyardgrass; [11]
  Barnyardgrass plant response rating: 0
wheat; [1]
  Wheat plant response rating: 0
wheat; [2]
  Plant response rating, Wheat: 0
wheat; [3]
  Plant response rating, Wheat: 0
wheat; [5]
  Wheat plant response rating: 0
wheat; [6]
  Wheat plant response rating: 0
wheat; [7]
  Plant response rating, Wheat: 0
Wild oat; [1]
  Wild oats plant response rating: 0
Wild oat; [2]
  Plant response rating, Wild oats: 0
Wild oat; [3]
  Plant response rating, Wild oats: 0
Wild oat; [5]
  Wild oats plant response rating: 0
Wild oat; [6]
  Wild oats plant response rating: 0
Wild oat; [7]
  Plant response rating, Wild oats: 0
crabgrass; [1]
  Crabgrass plant response rating: 0
crabgrass; [2]
  Plant response rating, Crabgrass: 0
crabgrass; [3]
  Plant response rating, Crabgrass: 1
crabgrass; [4]
  Crabgrass plant response rating: 0
crabgrass; [5]
  Crabgrass plant response rating: 0
crabgrass; [6]
  Crabgrass plant response rating: 6
crabgrass; [7]
  Plant response rating, Crabgrass: 8
Sugar beet; [1]
  Sugarbeets plant response rating: 0
Sugar beet; [2]
  Plant response rating, Sugarbeets: 0
Sugar beet; [3]
  Plant response rating, Sugarbeets: 0
Sugar beet; [5]
  Sugarbeets plant response rating: 0
Sugar beet; [6]
  Sugarbeets plant response rating: 0
Sugar beet; [7]
  Plant response rating, Sugarbeets: 0
Smallflower flatsedge; [8]
  S. Flatsedge plant response rating: 0
Smallflower flatsedge; [9]
  Plant response rating, S. Flatsedge (0 to 10 scale, 0 is no effect, 10 is complete control): 0
Smallflower flatsedge; [10]
  S. Flatsedge plant response rating (0 to 10 scale, 0 is no effect, 10 is complete control): 0
Smallflower flatsedge; [11]
  S. Flatsedge plant response rating: 0

— patent publication US6737383B1, “Herbicidal oxadiazolidines” (priority 1999, dated 2004)
